Experimental data reported in patent publication US4252970A, “6-Deoxyneamines” (The Upjohn Company, priority 1979, dated 1981).
Values after ≈ are worked out from the molar mass of the structure shown.

Tests used:
Assay type in all cases: cell-based
K. pneumoniae UC 57 = test: standard disc plate assay, zones of inhibition (12.5 mm paper discs)
Excerpt: (§1) The compounds of formulas (V, VII, IX, XI, XIV, XVI, and XIX) are active as antibacterials and can be used in various environments to erradicate or control susceptible microorganisms. Tables I and II set forth the in vitro antibacterial test results for representative compounds of the present invention. The results were obtained with a standard disc plate assay using 12.5 mm paper discs.

B. cereus UC 3145 = test: as above; conditions: 1 mg/ml
Excerpt: as §1

B. subtilis UC 564 = test: as above
Excerpt: as §1

E. coli UC 51 = test: as above
Excerpt: as §1

S. schottmuelleri UC 126 = test: as above
Excerpt: as §1

Ps. aeruginosa UC 95 [1] = test: as above; conditions: 1 mg/ml
Excerpt: as §1

P. vulgaris UC 93 = test: as above
Excerpt: as §1

S. aureus UC 80 = test: as above
Excerpt: as §1

P. rettgeri UC 339 = test: standard microplate test in BHI Agar (MIC); conditions: Providencia rettgeri, UC339, 37°, 20 hours, read-out: Minimum Inhibitory Concentration
Experimental: (§2) The compounds VII, XI, XVβ, XVα and XVI were tested in a standard microplate test in BHI (Brain Heart Infusion) Agar at a concentration of 1 mg./ml. and dilutions thereof at 37° incubation temperature. The end points are read at 20 hours. BHI Agar is supplied by Difco Laboratories, Detroit, Michigan, U.S.A. and has the following compositions: […]

S. aureus UC 76 = test: standard microplate test in BHI Agar (MIC); conditions: Staphylococcus aureus, UC76, 37°, 20 hours, read-out: Minimum Inhibitory Concentration
Experimental: as §2

Ps. aeruginosa UC 95 [2] = test: standard microplate test in BHI Agar (MIC); conditions: Pseudomonas aeruginosa, UC95, 37°, 20 hours, read-out: Minimum Inhibitory Concentration
Experimental: as §2

S. pyogenes UC 152 = test: standard microplate test in BHI Agar (MIC); conditions: Streptococcus pyogenes, UC152, 37°, 20 hours, read-out: Minimum Inhibitory Concentration
Experimental: as §2

K. pneumoniae UC 58 = test: standard microplate test in BHI Agar (MIC); conditions: Klebsiella pneumoniae, UC58, 37°, 20 hours, read-out: Minimum Inhibitory Concentration
Experimental: as §2

S. marcescens UC 131 = test: standard microplate test in BHI Agar (MIC); conditions: Serratia marcescens, UC131, 37°, 20 hours, read-out: Minimum Inhibitory Concentration
Experimental: as §2

S. faecalis UC 694 = test: standard microplate test in BHI Agar (MIC); conditions: Enterococcus faecalis, UC694, 37°, 20 hours, read-out: Minimum Inhibitory Concentration
Experimental: as §2

Compound: NC[C@H]1O[C@H](O[C@H]2[C@H](O)[C@@H](O)[C@H](N)C[C@@H]2N)[C@H](N)[C@@H](O)[C@@H]1O [Neamine]
- Zones of Inhibition (K. pneumoniae UC 57; 0.1 mg/ml): 26 mm
- Zones of Inhibition (K. pneumoniae UC 57; 1 mg/ml): 32 mm
- Zones of Inhibition (B. cereus UC 3145): 23 mm
- Zones of Inhibition (B. subtilis UC 564; 0.1 mg/ml): 28 mm
- Zones of Inhibition (B. subtilis UC 564; 1 mg/ml): 37 mm
- Zones of Inhibition (E. coli UC 51; 0.1 mg/ml): 18 mm
- Zones of Inhibition (E. coli UC 51; 1 mg/ml): 25 mm
- Zones of Inhibition (S. schottmuelleri UC 126; 0.1 mg/ml): 15 mm
- Zones of Inhibition (S. schottmuelleri UC 126; 1 mg/ml): 23 mm
- Zones of Inhibition (Ps. aeruginosa UC 95 [1]): 18 mm
- Zones of Inhibition (P. vulgaris UC 93; 0.1 mg/ml): 15 mm
- Zones of Inhibition (P. vulgaris UC 93; 1 mg/ml): 28 mm
- Zones of Inhibition (S. aureus UC 80; 0.1 mg/ml): 18 mm
- Zones of Inhibition (S. aureus UC 80; 1 mg/ml): 26 mm

Compound: C[C@@]1(O)C[C@H](N)C[C@H](N)[C@H]1O[C@H]1O[C@H](CN)[C@@H](O)[C@H](O)[C@H]1N [6-Deoxy-5-methyl-neamine]
- MIC (P. rettgeri UC 339): > 500 mg/L
- MIC (S. aureus UC 76): 15.6 mg/L (≈ 48.7 µM)
- MIC (Ps. aeruginosa UC 95 [2]): > 500 mg/L

Compound: NC[C@H]1O[C@H](O[C@H]2[C@H](O)C[C@H](N)C[C@@H]2N)[C@H](N)[C@@H](O)[C@@H]1O [6-deoxyneamine (XI), 6-Deoxyneamine]
- MIC (S. pyogenes UC 152): 15.6 mg/L (≈ 50.9 µM)
- MIC (K. pneumoniae UC 58): 7.8 mg/L (≈ 25.5 µM)
- MIC (P. rettgeri UC 339): 250 mg/L (≈ 816 µM)
- MIC (Ps. aeruginosa UC 95 [2]): > 500 mg/L
- MIC (S. marcescens UC 131): 250 mg/L (≈ 816 µM)
- MIC (S. faecalis UC 694): > 500 mg/L
